Experiments:
[1] = system: osteoclasts; details: reference 3, cited from earlier work
[2] = Serum levels in vivo
Excerpt: We have extensively investigated inhibitors of the store-operated Ca^2+ entry (SOCE) pathway as a target for control of bone erosion, particularly in the context of arthritis. […] On this basis, we have assessed the possibility that DCPA and/or DCPA analogs might be effective inhibitors of bone erosion in the context of arthritis^6. While this has proven to the case (data not shown), this investigation has opened new questions regarding the true identity of the DCPA target. […] As such, we have assessed the possibility that DCPA and its analogs may have a different target, especially within the context of arthritis.

CCC(=O)Nc1ccc(Cl)c(Cl)c1 [DCPA, 3,4-dichloropropionaniline]
formation of bone degrading osteoclasts ([1]; in vitro): reduced the formation of bone degrading osteoclasts | concentration needed to block osteoclast differentiation ([1]; no block below this concentration): ≥ 100 µM | serum levels [2]: ≤ 100 nM

From patent US20240058283A1, “THE MODE OF ACTION OF N-MeDCPA ON TRPC CHANNELS” (West Virginia University Board of Governors on Behalf of …, priority 2022, published 2024)
